Data reported in patent US5741671A, “Isolation cloning and expression of transmembrane water channel aquaporin 1(AQP1)” (The Johns Hopkins University, priority 1995, dated 1998).

What was measured:
Red cell water channels = settings: cited from earlier work
AQP1 = molecular target: T1, AQP1 (Homo sapiens, UniProt P29972); assay: Stopped-flow osmotic water permeability of AQP1 proteoliposomes; type: biochemical
T1 construct: Human erythrocytes were obtained from blood-bank units stored up to 5 weeks; from tissue; host or cells: human erythrocytes (blood-bank units; small-scale preparations from freshly drawn whole blood)
T1 sequence (P29972 2-269 limits assumed): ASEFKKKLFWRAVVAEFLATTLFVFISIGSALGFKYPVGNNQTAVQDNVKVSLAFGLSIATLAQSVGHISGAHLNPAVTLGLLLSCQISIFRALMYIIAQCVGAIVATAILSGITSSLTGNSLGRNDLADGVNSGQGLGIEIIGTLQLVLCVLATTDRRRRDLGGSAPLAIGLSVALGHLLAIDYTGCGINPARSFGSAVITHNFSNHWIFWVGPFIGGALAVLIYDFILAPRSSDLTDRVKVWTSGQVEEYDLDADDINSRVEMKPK
Description: Preparation AQP1-containing proteoliposomes. Crude Escherichia coli lipid was obtained from Avanti Polar Lipids, Inc., and neutral lipid was removed by acetone/ether wash (Ambudkar & Maloney, 1986, Methods. Enzymol. 125:558-563). The purified E. coli bulk phospholipid is composed of phosphalidylethanolamine (70%), phosphatidylglycerol (15%), and cardiolipin (15%) (Chen & Wilson, […], Proc. Natl. Acad. Sci. USA 83:2652-2656). E. coli bulk phospholipid was employed since it has previously been used for functional reconstitution of several transport proteins including the glucose transporter of RBCs (Maloney & Ambudkar, 1989, Arch. Biochem. Biophys. 269:1-10; Chen et al., 1986, Proc. Natl. Acad. Sci. USA 83:2652-2656).
Highly purified AQP1 protein was incorporated into proteoliposomes by detergent dilution; control liposomes were formed in an identical manner without AQP1 protein.
Purified AQP1 was stored overnight at 0° C. or frozen for several days at -80° C. prior to reconstitution. Reconstitution into proteoliposomes was carried out in a final volume of 1 ml containing 60-90 μg of purified AQP1 protein in chromatography buffer, 9 mg of bath-sonicated E. coli phospholipid, 1.25% (w/v) octyl glucoside, and 50 mM Tris-HCl (pH 7.5). The mixture was briefly blended on a vortex mixer and incubated for 20 minutes on ice. Proteoliposomes (or liposomes prepared without protein) were formed at room temperature by rapidly injecting the mixture into 25 ml of buffer A [50 mM MOPS, pH 7.5, 150 mM N-methyl-D-glucamine (NMDG) chloride also containing 10-15 mM carboxyfluorescein, 1 mM dithiothreitol, and 0.5 mM PMSF]. For the measurement of proton permeability, proteoliposomes and liposomes were loaded with buffer B (5 mM MOPS, pH 7.5, 150 mM KCl, 0.5 mM carboxyfluorescein, 1 mM dithiothreitol, and 0.5 mM PMSF). The suspension was incubated for 20 minutes at room temperature. Proteoliposomes or liposomes were collected by centrifugation for 1 hour at 123000×g in a Beckman Type 42.1 rotor at 4° C. The pellet was resuspended in 8 ml of buffer A or B and then centrifuged for 1 hour at 152000×g in a Beckman Type 50 Ti rotor. Proteoliposomes or liposomes were resuspended in 300 μl of buffer A or B and stored at 4° C. for 16-24 hours. Typically 50% (54±6%, n=5) of the AQP1 protein and 70% of the phospholipid were recovered in proteoliposomes. The lipid to protein ratio was in the range of 120:1 to 219:1. […] Protein and phospholipid were measured as described by Ambudkar & Maloney (J. Biol. Chem., 1986, 261:10079-10086).
Permeability measurements. Membrane permeability measurements (Pf) were measured by exposing AQP1 proteoliposomes or control liposomes to an osmotic gradient by rapid mixing with an equal volume of another solution containing buffer A plus sufficient sucrose to increase osmolality in the mixed solutions to a value 120% of that in the original solution. This was performed with a stopped-flow fluorometer (SF.17MV, Applied Photophysics, Leatherhead, U.K.) with a measured dead time of 0.7 ms. […] Extravesicular carboxyfluorescein fluorescence was completely quenched using anti-fluorescein antibody (Harris et al., 1990, Am. J. Physiol. 259:F366-F371). Within the range of osmolalities used in these experiments, the vesicles acted as perfect osmometers, and relative volume (absolute volume divided by initial volume) was linearly related to relative fluorescence (absolute fluorescence divided by initial fluorescence). […]

| reversal of inhibition by mercurial reagents (AQP1; 5 mM β-mercaptoethanol after pCMBS or HgCl2) | Compound | restoration of the membrane water channel after HgCl2 (Red cell water channels; 5 mM β-mercaptoethanol) | inhibition of the red cell / membrane water channel (Red cell water channels; submillimolar concentrations) | Pf after mercurial treatment (AQP1; CHIP28 proteoliposomes, 1 mM HgCl2, 3 minutes at 37° C.) | time to complete inhibition of Pf (AQP1; CHIP28 proteoliposomes, 1 mM, 37° C.) |
| --- | --- | --- | --- | --- | --- |
| completely reversed | OCCS [β-mercaptoethanol] | may be restored |  |  |  |
|  | [Cl][Hg][Cl] [HgCl2] |  | can be inhibited by submillimolar concentrations | 0.007±0.003 cm/s | ≤ 5 min |
